One series in a line: Hemolysis assay. The class given is cell-based, human. Particulars: human, washed human red blood cells (RBC suspension), pH 7.2, 24 h, 37 °C, free chrysin solution in DMSO (5%), read-out: Percentage of Hemolysis. Here is the method: (§1) Human blood samples were freshly collected from ten healthy volunteers and divided into tubes containing the anticoagulant agent ethylenediamine tetraacetic acid (EDTA), according to the protocols approved by the National Institute of Health and the Food and Drug Administration.
(§2) The hemocompatibility of free chrysin and the produced micro-formulations was evaluated via the hemolysis assay performed using a biochemical analyzer Konelab 30, Thermo Scientific. The experimental procedure was as follows: Whole blood samples were centrifuged for 10 min at 1500 rpm to remove plasma. The obtained cell pellets were washed three times with sterile PBS (10 mM, pH 7.2) to separate the red blood cells (RBCs) from other blood components, such as the white blood cells, plasma proteins, and excess antibodies, centrifuged and finally re-suspended at 5 mL PBS. The hemolysis assay was performed by adding 100 µL of the RBC suspension to 900 µL of PBS, containing several concentrations (5, 20, 40, 60, 80, 100, 200, 300, 400, 500 µg·mL^−1) of free chrysin, ChrPCL/PVAMCs, or ChrPHB/PVAMCs. The positive (+) control sample of hemolysis used (100% hemolysis) consisted of 900 µL of ultrapure water and 100 µL of washed RBCs. The negative (−) control sample (0% hemolysis) consisted of 900 µL PBS and 100 µL of washed RBCs. PBS and PBS containing either free chrysin, ChrPCL/PVAMCs, or ChrPHB/PVAMCs were used as blank samples. All samples were incubated for 24 h at 37 °C, under agitation at 120 rpm. After incubation, they were centrifuged at 700 rpm for 5 min, and the absorbance of the supernatant was measured at 541 nm. The % hemolysis was calculated after subtracting the blank values, and by setting the control (+) value as 100% of hemolysis. The absorbance was transformed to hemolysis percentage using the following equation: Percentage of hemolysis (%)=ODSample − ODNegative control/ODPositive control − ODNegative control where OD stands for Optical density.

In a further series the test system is human RBCs. The experiment in a line: Hemolysis assay. The format is cell-based. Here is the method: as §1, §2
A further series deals with human blood samples. As to the kind of experiment: Blood profile analysis (hematological parameters). The class given is cell-based. The conditions noted are these: human blood, 5, 80 and 200 µg·mL^−1, 37 °C, 1 h. As to the method: as §1
The blood profile analysis was performed using an automatic hematological analyzer Beckman Coulter ACT 5 Diff OV, (Beckman Coulter International S.A., Nyon, Switzerland) for the determination of different hematological parameters, such as red blood cells (RBCs) count ([…]), hemoglobin (HGB) g·dL^−1), hematocrit (HCT) (%), mean corpuscular volume (MCV) (in femtoliters, fl), mean corpuscular hemoglobin (MCH) (pg), mean corpuscular hemoglobin concentration (MCHC), red cell distribution width (RDW), white blood cells (WBCs) (10^9/L), neutrophils (NE) (%), lymphocytes (LY) (%), monocytes (MO) (%), eosinophils (EO) (%), basophils (BA) (%), and platelets (PLTs) (10^9/L), after exposure to free chrysin, ChrPCL/PVAMCs, or ChrPHB/PVAMCs, and without exposure to any agent. Briefly, the sample preparation was performed as follows: A 100 µL sample of whole blood was added to 900 µL of PBS. Then, either chrysin, ChrPCL/PVAMCs, or ChrPHB/PVAMCs were added to this diluted blood to achieve three concentrations: low, high, and very high (5, 80, and 200 µg·mL^−1, respectively). […]

The subject of series [1] is MDA-MB-231 human breast cancer cells. As to the kind of experiment: MTT cell viability assay. The format is cell-based. Particulars: MDA-MB-231, 48 h, for MCs expressed as encapsulated chrysin content, read-out: IC50 (inhibitory concentration of chrysin for 50% viability). As to the method:
Epithelial human breast cancer MDA-MB-231 cells were grown in Dulbecco’s Modified Eagle′s—Medium (DMEM) growth medium (pH 7.4) supplemented with 10% Fetal Bovine Serum (FBS) and 50 µg·mL^−1 gentamycin at 37 °C in a 5% humidified CO2 incubator.
In the present study, the cell viability of MDA-MB-231 breast cancer line was evaluated via the MTT assay. The method relies on the conversion of the yellow 3-(4,5-dimethylthiazol-2-yl)-2,5-diphenyl tetrazolium bromide (MTT) to purple formazan crystals. The reduction of MTT is catalyzed by the mitochondrial dehydrogenase enzyme and is therefore a measure for cell viability. MDA-MB-231 cells were exposed to free chrysin, ChrPCL/PVAMCs, or ChrPHB/PVAMCs in their exponential phase of growth. More specifically, in a 96-well plate (Corning, NY, USA), a number of 1 × 10^4 cells/well were seeded, and after 24 h (80% confluency) they were treated with different concentrations of ChrPCL/PVAMCs or ChrPHB/PVAMCs ranging between 0–400 µg·mL^−1. Due to the different loading capacity of chrysin in each type of MCs, free chrysin (dissolved in DMSO) was added accordingly, in equal concentrations (µM), with the encapsulated chrysin in the MCs, as estimated in Section 3.5. […] Finally, a Synergy HTX BioTEK plate reader (with a reference wavelength of 630 nm) was used to determine the absorbance measurement at 545 nm. […]
(In general: Tetrazolium assays rely on reduction of a dye to a coloured formazan, in cell work by metabolically active cells.)

Regarding `O=c1cc(-c2ccccc2)oc2cc(O)cc(O)c12` [chrysin, 5,7-dihydroxyflavone], the hemolysis at 24 h, 5 µg·mL^−1 in the series “Hemolysis assay” (5 µg·mL^−1) was 1.2%. Moreover, the hemolysis at 24 h, 20 µg·mL^−1 in “Hemolysis assay” (20 µg·mL^−1) was 2.1%. In the series “Hemolysis assay” (40 µg·mL^−1), the hemolysis at 24 h, 40 µg·mL^−1 is 2.7%. Further, the hemolysis at 24 h, 60 µg·mL^−1 in the series “Hemolysis assay” (60 µg·mL^−1) is 3%. The hemolysis at 24 h, 80 µg·mL^−1 in the series “Hemolysis assay” (80 µg·mL^−1) stood at 3.5%. Also, the hemolysis at 24 h, 100 µg·mL^−1 in the series “Hemolysis assay” (100 µg·mL^−1) came to 6.8%. The hemolysis at 24 h, 200 µg·mL^−1 in “Hemolysis assay” (200 µg·mL^−1) was 7%. For the same molecule, the hemolysis at 24 h, 300 µg·mL^−1 in the series “Hemolysis assay” (300 µg·mL^−1) amounted to 7.3%. The hemolysis at 24 h, 400 µg·mL^−1 in “Hemolysis assay” (400 µg·mL^−1) turned out to be 7.9%. The hemolysis at 24 h, 500 µg·mL^−1 in “Hemolysis assay” (500 µg·mL^−1) is 8.2%. Besides, the “hemoglobin release from RBCs (micrographs)” value with human RBCs (500 µg·mL^−1) is listed as “hemoglobin release from RBCs is obvious”. In addition, the hemolytic activity entry in the series on human RBCs (concentrations between 100 and 500 µg·mL^−1, diluted in 5% DMSO) is “greater than 5%”. Besides, in the series on human blood samples, the “PLT values compared to negative control” value is recorded as “significant decrease” and the “hematological parameters (RBCs, HGB, HCT, MCV, MCH, MCHC, RDW, WBCs, NE, LY, MO, EO, BA) compared to negative control” value is given as “did not display significant deviation”. Further, the IC50 in series [1] came out at 112 µM.

Values taken from article PMC7831015, “Evaluation of the Hemocompatibility and Anticancer Potential of Poly(ε-Caprolactone) and Poly(3-Hydroxybutyrate) Microcarriers with Encapsulated Chrysin” (Pharmaceutics, 2021).
